Data: patent US20150126545A1, “COMPOSITIONS CONTAINING KINASE INHIBITORS” (AbbVie Inc., priority 2011, published 2015)
≈ marks a conversion by molar mass, not a printed value.

What was measured:
[1] = Solubility of free base in various media; format: physicochemical
Description: Solubility of N-(4-{4-amino-7-[1-(2-hydroxyethyl)-1H-pyrazol-4-yl]thieno[3,2-c]pyridin-3-yl}phenyl)-N′-(3-fluorophenyl)urea Free Base in Various Media

[2] = Solubility of free base in PEG-300/Cremophor EL/Ethanol vehicles; format: physicochemical
Description: Solubility of N-(4-{4-amino-7-[1-(2-hydroxyethyl)-1H-pyrazol-4-yl]thieno[3,2-c]pyridin-3-yl}phenyl)-N′-(3-fluorophenyl)urea Free Base in PEG-300/Cremophor EL/Ethanol Vehicles

[3] = Pharmacokinetics of IV formulation in humans (Phase I, advanced solid tumors); format: in vivo; details: human, plasma, IV infusion approx. 2 hour
Description: IV formulations of the invention were used in an open-label Phase I human study evaluating the safety and pharmacokinetics of N-(4-{4-amino-7-[1-(2-hydroxyethyl)-1H-pyrazol-4-yl]thieno[3,2-c]pyridin-3-yl}phenyl)-N′-(3-fluorophenyl)urea as monotherapy in subjects with advanced solid tumors, i.e., mixture of polyethylene glycol 300, polyoxyl 35 castor oil, and ethanol in a ratio of 45:45:10% w/w, and N-(4-{4-amino-7-[1-(2-hydroxyethyl)-1H-pyrazol-4-yl]thieno[3,2-c]pyridin-3-yl}phenyl)-N′-(3-fluorophenyl)urea, wherein the N-(4-{4-amino-7-[1-(2-hydroxyethyl)-1H-pyrazol-4-yl]thieno[3,2-c]pyridin-3-yl}phenyl)-N′-(3-fluorophenyl)urea is present in a concentration of about 6 mg/mL.
The number of subjects that entered the studies and completed at least a portion of the studies are noted. Subjects entered the study and were assigned to receive one of the following doses: 8 mg, 16 mg, or 32 mg.
Doses were administered on Day 1 and Day 15 of each 28 day cycle with an approximately 2 hour infusion. On Day 1 and Day 15, plasma samples are collected at time 0 (prior to infusion), 1 h 55 min (just before the end of the infusion), and at 0.5, 1, 2, 4, 6, 8, 10, 24 hours post the end of infusion. The plasma concentrations of N-(4-{4-amino-7-[1-(2-hydroxyethyl)-1H-pyrazol-4-yl]thieno[3,2-c]pyridin-3-yl}phenyl)-N′-(3-fluorophenyl)urea were determined, and the values for the pharmacokinetic parameters were calculated and shown in Table 7.

[4] = 8 mg, 8 mg, Study Day 1, mean ± SD, N 4
[5] = 8 mg, 8 mg, Study Day 15, mean ± SD, N 4
[6] = 16 mg, 16 mg, Study Day 15, N 1
[7] = 32 mg, 32 mg, Study Day 1, mean, N 2
[8] = 32 mg, 32 mg, Study Day 15, mean, N 2

solubility ([1]; 10% Cremophor EL in water, aqueous with cosolvent or surfactant or cyclodextrin, read-out: Solubility): 106 µg/mL (≈ 217 µM)
solubility ([1]; 10% Polysorbate 80 in water, aqueous with cosolvent or surfactant or cyclodextrin, read-out: Solubility): 146 µg/mL (≈ 299 µM)
solubility ([1]; 10% Solutol HS in water, aqueous with cosolvent or surfactant or cyclodextrin, read-out: Solubility): 152 µg/mL (≈ 311 µM)
solubility ([1]; Cremophor EL, organic solvent or mixture, Cremphor EL, read-out: Solubility): 7100 µg/mL (≈ 14500 µM)
solubility ([1]; DMA, organic solvent or mixture, read-out: Solubility): 35000 to 50000 µg/mL (≈ 71600 to 102000 µM)
solubility ([1]; Ethanol, organic solvent or mixture, read-out: Solubility): 130 µg/mL (≈ 266 µM)
solubility ([1]; PEG 300, organic solvent or mixture, read-out: Solubility): 20000 µg/mL (≈ 40900 µM)
solubility ([1]; PEG 400, organic solvent or mixture, read-out: Solubility): 20900 µg/mL (≈ 42800 µM)
solubility ([1]; Polysorbate 80, organic solvent or mixture, read-out: Solubility): 2500 µg/mL (≈ 5120 µM)
solubility ([1]; Propylene Glycol, organic solvent or mixture, read-out: Solubility): 1200 µg/mL (≈ 2460 µM)
solubility ([1]; Water (across physiological pH range), read-out: Solubility): < 0.03 µg/mL
solubility ([1]; water, pH 7.4, aqueous buffer, read-out: solubility in water): < 0.03 µg/mL
solubility ([2]; PEG-300/Cremophor EL/Ethanol 42.5/42.5/15, organic solvent or mixture, PEG-300/Cremophor EL/Ethanol ratio 42.5/42.5/15, 5° C., read-out: Solubility (mg/mL) at 5° C.): 11.9 mg/mL
solubility ([2]; PEG-300/Cremophor EL/Ethanol 42.5/42.5/15, organic solvent or mixture, PEG-300/Cremophor EL/Ethanol ratio 42.5/42.5/15, RT, read-out: Solubility (mg/mL) at RT): 10 mg/mL
solubility ([2]; PEG-300/Cremophor EL/Ethanol 45/45/10, organic solvent or mixture, PEG-300/Cremophor EL/Ethanol ratio 45/45/10, 5° C., read-out: Solubility (mg/mL) at 5° C.): 14.1 mg/mL
solubility ([2]; PEG-300/Cremophor EL/Ethanol 45/45/10, organic solvent or mixture, PEG-300/Cremophor EL/Ethanol ratio 45/45/10, RT, read-out: Solubility (mg/mL) at RT): 11.6 mg/mL
solubility ([2]; PEG-300/Cremophor EL/Ethanol 47.5/47.5/5, organic solvent or mixture, PEG-300/Cremophor EL/Ethanol ratio 47.5/47.5/5, 5° C., read-out: Solubility (mg/mL) at 5° C.): 16.4 mg/mL
solubility ([2]; PEG-300/Cremophor EL/Ethanol 47.5/47.5/5, organic solvent or mixture, PEG-300/Cremophor EL/Ethanol ratio 47.5/47.5/5, RT, read-out: Solubility (mg/mL) at RT): 13 mg/mL
half-life ([3]; 8 mg, 8 mg, Study Day 1, harmonic mean ± pseudo SD, N 4): 10.7 ± 8.3 h
AUC(0-inf) [3, 4]: 2960 ± 1540 ng·h/mL
Cmax [3, 4]: 235 ± 82.1 ng/mL
Tmax [3, 4]: 1.9 h
half-life ([3]; 8 mg, 8 mg, Study Day 15, harmonic mean ± pseudo SD, N 4): 14.1 ± 7.4 h
AUC(0-inf) [3, 5]: 2940 ± 1630 ng·h/mL
Cmax [3, 5]: 246 ± 107 ng/mL
Tmax [3, 5]: 1.9 h
AUC(0-inf) ([3]; 16 mg, 16 mg, Study Day 1, N 1): 2350 ng·h/mL
Cmax ([3]; 16 mg, 16 mg, Study Day 1, N 1): 366 ng/mL
Tmax ([3]; 16 mg, 16 mg, Study Day 1, N 1): 2.5 h
half-life ([3]; 16 mg, 16 mg, Study Day 1, N 1): 9.8 h
AUC(0-inf) [3, 6]: 3690 ng·h/mL
Cmax [3, 6]: 736 ng/mL
Tmax [3, 6]: 1.9 h
half-life [3, 6]: 12.6 h
half-life ([3]; 32 mg, 32 mg, Study Day 1, harmonic mean, N 2): 8.9 h
AUC(0-inf) [3, 7]: 8730 ng·h/mL
Cmax [3, 7]: 1310 ng/mL
Tmax [3, 7]: 1.9 h
half-life ([3]; 32 mg, 32 mg, Study Day 15, harmonic mean, N 2): 11.3 h
AUC(0-inf) [3, 8]: 8620 ng·h/mL
Cmax [3, 8]: 1370 ng/mL
Tmax [3, 8]: 2.2 h
SMILES: Nc1ncc(-c2cnn(CCO)c2)c2scc(-c3ccc(NC(=O)Nc4cccc(F)c4)cc3)c12 [API, N-(4-{4-amino-7-[1-(2-hydroxyethyl)-1H-pyrazol-4-yl]thieno[3,2-c]pyridin-3-yl}phenyl)-N′-(3-fluorophenyl)urea]
